Results published in ChEMBL document CHEMBL4229504, “Incorporation of histone deacetylase inhibitory activity into the core of tamoxifen - A new hybrid design paradigm” (Bioorg Med Chem, 2018).
Calls of active or inactive are those of the source. The calls are words filed in the database; no cut-off is given here.

Legend:
[1] = molecular target: T1, Estrogen receptor (Homo sapiens, UniProt P03372); assay: Antagonist activity at recombinant human ERalpha expressed in HEK293 cells assessed as inhibition of estradiol-induced YFP-fused SRC1 coactivator recruitment measured after 1 hr in presence of Coelenterazine H by BRET assay; format: cell-based
T1 sequence (P03372 whole entry): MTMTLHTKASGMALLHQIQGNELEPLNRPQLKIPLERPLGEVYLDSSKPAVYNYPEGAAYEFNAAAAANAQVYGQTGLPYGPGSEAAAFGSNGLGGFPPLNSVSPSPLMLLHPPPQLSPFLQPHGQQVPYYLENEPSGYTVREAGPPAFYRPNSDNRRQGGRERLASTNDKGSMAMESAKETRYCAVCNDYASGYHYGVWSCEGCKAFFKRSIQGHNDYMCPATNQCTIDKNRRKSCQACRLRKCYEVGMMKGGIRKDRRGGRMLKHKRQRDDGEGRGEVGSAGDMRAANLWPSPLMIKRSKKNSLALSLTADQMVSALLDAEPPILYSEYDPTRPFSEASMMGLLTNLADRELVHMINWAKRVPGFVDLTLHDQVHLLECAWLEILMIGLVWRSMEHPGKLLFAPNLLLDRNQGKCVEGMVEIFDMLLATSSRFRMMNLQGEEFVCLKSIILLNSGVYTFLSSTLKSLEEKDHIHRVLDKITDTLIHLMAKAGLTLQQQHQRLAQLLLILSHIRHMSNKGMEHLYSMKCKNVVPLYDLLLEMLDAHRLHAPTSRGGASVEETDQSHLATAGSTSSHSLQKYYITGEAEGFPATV

[2] = molecular target: T1, Estrogen receptor; assay: Partial agonist activity at recombinant human ERalpha expressed in HEK293 cells assessed as YFP-fused SRC1 coactivator recruitment measured after 1 hr in presence of Coelenterazine H by BRET assay; format: cell-based; conditions: hek293, 1 h
[3] = molecular target: T2, Protein deacetylase HDAC6 (Homo sapiens, UniProt Q9UBN7); assay: Inhibition of full length recombinant human N-terminal GST-tagged HDAC6 expressed in Sf9 cells using Ac-Leu-Gly-Lys(Ac)-AMC as substrate measured after 30 mins by fluorescence assay
T2 sequence (Q9UBN7 whole entry): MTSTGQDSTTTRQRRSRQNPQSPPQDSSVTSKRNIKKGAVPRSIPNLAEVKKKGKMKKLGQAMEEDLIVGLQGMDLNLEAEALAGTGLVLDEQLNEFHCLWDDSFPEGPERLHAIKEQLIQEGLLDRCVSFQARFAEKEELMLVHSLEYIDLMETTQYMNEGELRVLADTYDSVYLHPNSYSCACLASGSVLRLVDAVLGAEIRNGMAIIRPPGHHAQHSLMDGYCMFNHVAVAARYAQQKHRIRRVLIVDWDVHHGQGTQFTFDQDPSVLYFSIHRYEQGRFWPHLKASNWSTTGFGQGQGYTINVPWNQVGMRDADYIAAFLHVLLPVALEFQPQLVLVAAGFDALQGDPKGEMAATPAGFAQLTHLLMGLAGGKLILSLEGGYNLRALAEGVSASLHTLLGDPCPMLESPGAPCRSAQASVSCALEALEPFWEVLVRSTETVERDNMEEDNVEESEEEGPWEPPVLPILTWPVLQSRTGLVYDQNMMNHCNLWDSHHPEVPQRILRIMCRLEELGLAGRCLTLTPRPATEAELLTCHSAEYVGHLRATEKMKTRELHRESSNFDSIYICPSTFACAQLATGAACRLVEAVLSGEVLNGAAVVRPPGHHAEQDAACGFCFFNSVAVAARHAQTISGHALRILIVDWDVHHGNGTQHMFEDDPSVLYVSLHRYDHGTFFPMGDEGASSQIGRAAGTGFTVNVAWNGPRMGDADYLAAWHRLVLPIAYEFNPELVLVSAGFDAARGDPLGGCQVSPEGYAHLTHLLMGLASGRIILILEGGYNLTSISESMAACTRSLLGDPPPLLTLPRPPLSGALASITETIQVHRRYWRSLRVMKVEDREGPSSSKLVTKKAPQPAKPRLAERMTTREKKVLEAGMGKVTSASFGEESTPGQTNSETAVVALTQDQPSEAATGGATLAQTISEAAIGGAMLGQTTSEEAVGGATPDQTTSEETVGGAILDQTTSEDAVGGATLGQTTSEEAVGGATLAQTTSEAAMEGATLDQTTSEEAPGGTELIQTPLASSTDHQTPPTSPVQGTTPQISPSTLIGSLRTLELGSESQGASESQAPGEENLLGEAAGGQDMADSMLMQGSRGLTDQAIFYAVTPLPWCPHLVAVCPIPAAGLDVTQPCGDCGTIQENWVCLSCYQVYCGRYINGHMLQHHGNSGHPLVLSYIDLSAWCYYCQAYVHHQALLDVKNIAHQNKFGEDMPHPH

[4] = molecular target: Histone deacetylase 3/Nuclear receptor corepressor 2 (HDAC3/NCoR2) (Homo sapiens, UniProt O15379); assay: Inhibition of human full length C-terminal His-tagged HDAC3/N-terminal GST-tagged human NCOR2 (395 to 489 residues) expressed in baculovirus expression system using Ac-Leu-Gly-Lys(Ac)-AMC as substrate measured after 30 mins by fluorescence assay
Sequence of Histone deacetylase 3/Nuclear receptor corepressor 2 (HDAC3/NCoR2) (O15379 whole entry, the tested form may be a part): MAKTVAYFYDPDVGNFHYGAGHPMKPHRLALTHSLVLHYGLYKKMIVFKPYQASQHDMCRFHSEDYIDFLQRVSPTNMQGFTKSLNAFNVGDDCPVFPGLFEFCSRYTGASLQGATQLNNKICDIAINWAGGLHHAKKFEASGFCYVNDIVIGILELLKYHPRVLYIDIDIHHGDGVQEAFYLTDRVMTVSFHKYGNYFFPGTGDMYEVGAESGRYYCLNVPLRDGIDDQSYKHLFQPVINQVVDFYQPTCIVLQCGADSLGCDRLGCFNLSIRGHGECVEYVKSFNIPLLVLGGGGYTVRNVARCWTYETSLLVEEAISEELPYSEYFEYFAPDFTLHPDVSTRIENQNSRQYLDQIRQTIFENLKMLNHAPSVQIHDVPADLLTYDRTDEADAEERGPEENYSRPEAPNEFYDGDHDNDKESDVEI
Sequence of Histone deacetylase 3/Nuclear receptor corepressor 2 (HDAC3/NCoR2) (Q9Y618 whole entry, further chain, the tested form may be a part): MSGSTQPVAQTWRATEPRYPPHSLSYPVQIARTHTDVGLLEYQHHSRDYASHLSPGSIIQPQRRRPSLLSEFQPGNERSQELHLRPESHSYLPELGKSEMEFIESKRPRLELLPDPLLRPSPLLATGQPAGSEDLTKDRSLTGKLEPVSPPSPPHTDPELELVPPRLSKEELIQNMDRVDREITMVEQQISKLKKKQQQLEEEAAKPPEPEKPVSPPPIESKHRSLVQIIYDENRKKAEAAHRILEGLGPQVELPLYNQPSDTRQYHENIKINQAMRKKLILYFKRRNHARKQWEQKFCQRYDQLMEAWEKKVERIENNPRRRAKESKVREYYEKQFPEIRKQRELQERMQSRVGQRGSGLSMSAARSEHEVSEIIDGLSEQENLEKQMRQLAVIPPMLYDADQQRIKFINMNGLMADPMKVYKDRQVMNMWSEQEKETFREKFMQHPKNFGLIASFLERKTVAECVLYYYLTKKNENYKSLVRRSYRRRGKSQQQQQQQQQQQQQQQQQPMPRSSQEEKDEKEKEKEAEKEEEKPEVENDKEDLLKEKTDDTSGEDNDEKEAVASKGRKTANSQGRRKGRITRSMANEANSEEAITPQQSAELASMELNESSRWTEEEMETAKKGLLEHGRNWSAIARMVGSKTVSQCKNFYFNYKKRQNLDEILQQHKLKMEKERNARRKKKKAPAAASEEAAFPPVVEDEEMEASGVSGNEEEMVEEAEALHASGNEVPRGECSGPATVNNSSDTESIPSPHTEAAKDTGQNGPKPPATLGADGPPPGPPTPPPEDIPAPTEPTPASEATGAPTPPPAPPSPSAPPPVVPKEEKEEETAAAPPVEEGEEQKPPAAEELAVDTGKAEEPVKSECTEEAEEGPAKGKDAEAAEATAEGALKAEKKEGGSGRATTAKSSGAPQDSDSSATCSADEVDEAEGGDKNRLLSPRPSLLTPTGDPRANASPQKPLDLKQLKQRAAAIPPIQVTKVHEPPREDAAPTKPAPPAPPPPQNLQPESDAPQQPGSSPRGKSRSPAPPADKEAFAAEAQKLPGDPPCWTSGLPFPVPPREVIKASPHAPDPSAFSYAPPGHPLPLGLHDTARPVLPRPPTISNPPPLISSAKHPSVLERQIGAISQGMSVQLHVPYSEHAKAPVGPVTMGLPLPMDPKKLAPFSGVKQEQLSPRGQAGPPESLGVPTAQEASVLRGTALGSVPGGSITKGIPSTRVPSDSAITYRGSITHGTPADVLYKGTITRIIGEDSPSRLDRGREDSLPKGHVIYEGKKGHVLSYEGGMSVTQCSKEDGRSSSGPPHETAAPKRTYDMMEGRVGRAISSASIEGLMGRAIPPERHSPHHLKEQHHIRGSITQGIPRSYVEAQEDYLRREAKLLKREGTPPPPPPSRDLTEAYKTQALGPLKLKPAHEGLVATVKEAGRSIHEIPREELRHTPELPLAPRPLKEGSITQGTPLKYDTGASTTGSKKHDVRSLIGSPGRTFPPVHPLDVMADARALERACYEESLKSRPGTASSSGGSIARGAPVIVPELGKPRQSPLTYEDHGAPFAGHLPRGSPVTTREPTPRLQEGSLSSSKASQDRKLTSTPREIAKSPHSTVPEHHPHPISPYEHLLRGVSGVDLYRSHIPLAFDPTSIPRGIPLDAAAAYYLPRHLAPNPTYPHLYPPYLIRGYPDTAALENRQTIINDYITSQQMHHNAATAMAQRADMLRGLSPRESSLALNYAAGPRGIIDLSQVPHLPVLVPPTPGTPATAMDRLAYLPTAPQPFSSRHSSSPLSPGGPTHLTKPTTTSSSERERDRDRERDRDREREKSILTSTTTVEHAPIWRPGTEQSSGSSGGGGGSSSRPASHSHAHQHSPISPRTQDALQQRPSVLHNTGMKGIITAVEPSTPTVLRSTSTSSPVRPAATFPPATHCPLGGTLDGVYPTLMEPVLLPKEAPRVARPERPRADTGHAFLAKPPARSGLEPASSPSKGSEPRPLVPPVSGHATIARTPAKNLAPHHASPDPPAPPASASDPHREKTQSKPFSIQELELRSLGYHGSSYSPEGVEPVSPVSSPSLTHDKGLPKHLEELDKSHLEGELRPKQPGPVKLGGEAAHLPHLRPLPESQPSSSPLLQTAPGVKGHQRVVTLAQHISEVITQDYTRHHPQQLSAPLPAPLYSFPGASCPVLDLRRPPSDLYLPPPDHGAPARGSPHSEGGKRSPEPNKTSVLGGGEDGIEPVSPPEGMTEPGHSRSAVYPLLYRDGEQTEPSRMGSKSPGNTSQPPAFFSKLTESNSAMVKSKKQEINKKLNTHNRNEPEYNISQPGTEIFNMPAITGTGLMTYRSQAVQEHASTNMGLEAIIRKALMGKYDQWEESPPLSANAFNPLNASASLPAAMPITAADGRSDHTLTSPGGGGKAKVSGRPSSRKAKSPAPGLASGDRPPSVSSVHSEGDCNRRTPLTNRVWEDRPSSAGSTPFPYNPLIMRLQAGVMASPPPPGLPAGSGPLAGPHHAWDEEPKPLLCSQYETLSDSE

[5] = system: MCF7; assay: Cytotoxicity against ER positive human MCF7 cells treated every 2 days for 4 days measured post last dose by CellTiter-Glo luminescence assay; format: functional, cell-based
[6] = system: MCF7; assay: Cytotoxicity against ER positive human MCF7 cells treated every 2 days for 4 days measured after 7 days by CellTiter-Glo luminescence assay; format: functional, cell-based
[7] = molecular target: T3, Estrogen receptor (Homo sapiens) (UniProt P03372); assay: Antagonist activity at recombinant human ERalpha expressed in HEK293 cells assessed as inhibition of estradiol-induced YFP-fused SRC1 coactivator recruitment at higher concentration measured after 1 hr in presence of Coelenterazine H by BRET assay; format: cell-based
T3 sequence (whole entry): T1 sequence (P03372 whole entry)

[8] = system: MDA-MB-231; assay: Cytotoxicity against ER negative human MDA-MB-231 cells treated every 2 days for 4 days measured post last dose by CellTiter-Glo luminescence assay; format: functional, cell-based
[9] = system: MDA-MB-231; assay: Cytotoxicity against ER negative human MDA-MB-231 cells treated every 2 days for 4 days measured after 7 days by CellTiter-Glo luminescence assay; format: functional, cell-based
[10] = system: MCF-10A; assay: Cytotoxicity against ER negative human MCF10A cells treated every 2 days for 4 days measured post last dose by CellTiter-Glo luminescence assay; format: functional, cell-based
[11] = system: MCF-10A; assay: Cytotoxicity against ER negative human MCF10A cells treated every 2 days for 4 days measured after 7 days by CellTiter-Glo luminescence assay; format: functional, cell-based
[12] = molecular target: T4, Histone deacetylase 6/3 (Homo sapiens) (UniProt O15379+Q9UBN7); assay: Inhibition of HDAC6/HDAC3 in human MCF7 cells assessed as induction of SREBF1 mRNA expression at 5 uM after 24 hrs by QIAzol reagent based RT-qPCR analysis; format: cell-based
T4 sequence (O15379 whole entry, looked up, one chain of several): as the sequence (O15379 whole entry, the tested form may be a part) above

[13] = molecular target: T4, Histone deacetylase 6/3 (Homo sapiens); assay: Inhibition of HDAC6/HDAC3 in human MCF7 cells assessed as induction of CTGF mRNA expression at 5 uM after 24 hrs by QIAzol reagent based RT-qPCR analysis; format: cell-based
[14] = molecular target: T4, Histone deacetylase 6/3 (Homo sapiens); assay: Inhibition of HDAC6/HDAC3 in human MCF7 cells assessed as induction of CDKN1A mRNA expression at 5 uM after 24 hrs by QIAzol reagent based RT-qPCR analysis; format: cell-based
[15] = molecular target: Histone deacetylase 3 (Homo sapiens) (UniProt O15379); assay: Inhibition of HDAC3 in human MCF7 cells assessed as increase in acetylated histone H4 expression at 0.1 to 9 uM after 8 hrs by Western blot analysis; format: cell-based
Sequence of Histone deacetylase 3 (Homo sapiens) (O15379 whole entry): as the sequence (O15379 whole entry, the tested form may be a part) above

[16] = molecular target: T5, Protein deacetylase HDAC6 (Homo sapiens) (UniProt Q9UBN7); assay: Inhibition of HDAC6 in human MCF7 cells assessed as increase in acetylated alpha-tubulin expression at 0.1 to 9 uM after 8 hrs by Western blot analysis; format: cell-based
T5 sequence (whole entry): T2 sequence (Q9UBN7 whole entry)

Row | Structure (SMILES) | IC50 [1] [nM] | Activity [2] | IC50 [3] [nM] | IC50 [4] [nM] | IC50 [5] [nM] | IC50 [6] [nM] | inhibition [7] | IC50 [8] [nM] | IC50 [9] [nM] | IC50 [10] [nM] | IC50 [11] [nM] | inhibition [12] | inhibition [13] | inhibition [14] | inhibition [15] | inhibition [16]
1 | CC/C(=C(\c1ccc(O)cc1)c1ccc(OCCN(C)C)cc1)c1ccc(CCC(=O)NO)cc1 | 1940 | Not Active | 484 | 2010 | 3600 | 1800 | – | – | – | – | – | – | – | – | – | –
2 | CC/C(=C(\c1ccc(O)cc1)c1ccc(OCCN(C)C)cc1)c1ccc(/C=C/C(=O)NO)cc1 | – | Not Active | 519 | 6720 | 4800 | 2700 | Active | – | – | – | – | – | – | – | – | –
3 | CC/C(=C(\c1ccc(O)cc1)c1ccc(OCCN(C)C)cc1)c1ccc(OCCCCC(=O)NO)cc1 | 800 | Not Active | 1780 | 2100 | 2900 | 1200 | – | – | – | – | – | – | – | – | – | –
4 | CC/C(=C(\c1ccc(O)cc1)c1ccc(OCCN(C)C)cc1)c1ccc(CCCCC(=O)NO)cc1 | 820 | Not Active | 300 | 734 | 1300 | 790 | – | 1270 | 1100 | 2170 | 1830 | Active | Active | Active | – | –
5 | CC/C(=C(\c1ccc(O)cc1)c1ccc(OCCN(C)C)cc1)c1ccc(C(=O)NO)cc1 | 1120 | Not Active | 71900 | – | – | – | – | – | – | – | – | – | – | – | – | –
6 | CCC(=C(c1ccc(O)cc1)c1ccc(OCCN(C)C)cc1)c1ccccc1 | – | – | – | – | 3900 | 3300 | – | 3500 | 2500 | 4000 | 4000 | inactive | inactive | inactive | inactive | inactive
